{"source": "patent US20090133318A1", "about": "“Anthranilamide insecticides” (priority 2004, published 2009)", "assay_type_in_all_cases": "in vivo", "key": {"[1]": {"system": "western flower thrips (Frankliniella occidentalis Pergande)", "assay": "Test G: control of western flower thrips through contact and/or systemic means, bean plant (mixtures)", "protocol": "(§1) Test compounds or mixtures were formulated using a solution containing 10% acetone, 90% water and 300 ppm X-77™ Spreader Lo-Foam Formula non-ionic surfactant containing alkylarylpolyoxyethylene, free fatty acids, glycols and 2-propanol (Loveland Industries, Inc. Greeley, Colo., USA). The formulated compounds or mixtures were applied in 1 mL of liquid through a SUJ2 atomizer nozzle with ⅛ JJ custom body (Spraying Systems Co. Wheaton, Ill., USA) positioned 1.27 cm (0.5 inches) above the top of each test unit. All experimental compounds in these tests were sprayed at 10 ppm replicated three times. For experimental mixtures in these tests, to obtain the desired mixture concentrations of each compound, twice the desired concentration of each of the two mixture partner compounds were mixed together in equal volumes.\nFor evaluating control of the western flower thrips (Frankliniella occidentalis Pergande) through contact and/or systemic means, each test unit consisted of a small open container with a 5- to 7-day-old bean (var. Soleil) plant inside.\nTest mixtures were formulated and sprayed with 3 replications as described for Test A. After spraying, the test units were allowed to dry for 1 hour, 22 to 27 adult thrips were added to each unit and then a black, screened cap was placed on top. The test units were held for 7 days at 25° C. and 45-55% relative humidity. The amount of plant damage for each test unit was rated to determine the percent plant protection."}, "[2]": {"system": "corn planthopper (Peregrinus maidis)", "assay": "Test F: control of corn planthopper through contact and/or systemic means, corn plant (mixtures)", "protocol": "as §1\nFor evaluating control of corn planthopper (Peregrinus maidis) through contact and/or systemic means, each test unit consisted of a small open cylindrical container with a 3- to 4 day-old corn (maize) plant (spike) inside. White sand was added to the top of the soil prior to application. Test mixtures were formulated and sprayed with 3 replications as described for Test A. After spraying, the test units were allowed to dry for 1 hour before they were post-infested with 10 to 20 corn planthoppers (18- to 20-day-old nymphs) by sprinkling them onto the sand with a salt shaker. A black, screened cap was placed on the top of each container. The test units were held for 6 days in a growth chamber at 19-21° C. and 50-70% relative humidity. Dead and total number of corn planthoppers were counted in each test unit to determine percent mortality."}, "[3]": {"system": "diamondback moth (Plutella xylostella)", "assay": "Test A: control of diamondback moth, foliar spray on radish plant", "from_the_text": "For evaluating control of diamondback moth (Plutella xylostella) the test unit consisted of a small open container with a 12-14-day-old radish plant inside. This was pre-infested with 10-15 neonate larvae on a piece of insect diet by use of a core sampler to remove a plug from a sheet of hardened insect diet having many larvae growing on it and transfer the plug containing larvae and diet to the test unit. The larvae moved onto the test plant as the diet plug dried out.\nas §1, with “All experimental compounds in these tests were sprayed at 10 ppm replicated three times.” left out\nAfter spraying of the formulated test compound or mixture, each test unit was allowed to dry for 1 hour and then a black, screened cap was placed on top. The test units were held for 6 days in a growth chamber at 25° C. and 70% relative humidity. Plant feeding damage was then visually assessed based on foliage consumed."}, "[4]": {"system": "green peach aphid (Myzus persicae)", "assay": "Test C: control of green peach aphid through contact and/or systemic means, radish plant", "protocol": "as §1\nFor evaluating control of green peach aphid (Myzus persicae) through contact and/or systemic means, the test unit consisted of a small open container with a 12- to 15-day-old radish plant inside. This was pre-infested by placing on a leaf of the test plant 30-40 aphids on a piece of leaf excised from a culture plant (cut-leaf method). The larvae moved onto the test plant as the leaf piece desiccated. After pre-infestation, the soil of the test unit was covered with a layer of sand.\nAll test compounds were formulated and sprayed at 50 ppm as described for Test A and replicated three times. Test mixtures were formulated as described for Test A and replicated three times. After spraying of the formulated test compound or mixture, each test unit was allowed to dry for 1 hour and then a black, screened cap was placed on top. The test units were held for 6 days in a growth chamber at 19-21° C. and 50-70% relative humidity. Dead and total number of aphids were counted in each test unit to determine percent mortality."}}, "data": [{"molecule": "Thiamethoxam", "values": [{"measurement": "% protection (obs)", "setting": "[1]; 5 ppm", "result": 0, "unit": "%"}, {"measurement": "% protection (obs)", "setting": "[1]; 70 ppm", "result": 77, "unit": "%"}, {"measurement": "% protection (obs)", "setting": "[1]; 250 ppm", "result": 100, "unit": "%"}, {"measurement": "Mortality (obs)", "setting": "[2]; 0.2 ppm", "result": 19, "unit": "%"}, {"measurement": "Mortality (obs)", "setting": "[2]; 0.4 ppm", "result": 73, "unit": "%"}, {"measurement": "Mortality (obs)", "setting": "[2]; 0.6 ppm", "result": 100, "unit": "%"}, {"measurement": "% protection (obs)", "setting": "[3]; 30 ppm", "result": 43, "unit": "%"}, {"measurement": "% protection (obs)", "setting": "[3]; 40 ppm", "result": 73, "unit": "%"}, {"measurement": "% protection (obs)", "setting": "[3]; 50 ppm", "result": 90, "unit": "%"}, {"measurement": "Mortality (obs)", "setting": "[4]; 0.2 ppm", "result": 44, "unit": "%"}, {"measurement": "Mortality (obs)", "setting": "[4]; 0.4 ppm", "result": 73, "unit": "%"}, {"measurement": "Mortality (obs)", "setting": "[4]; 0.6 ppm", "result": 87, "unit": "%"}]}, {"molecule": "Cc1cc(Cl)cc(C(=O)NCC2CC2)c1NC(=O)c1cc(Br)nn1-c1ncccc1Cl", "note": "[Compound 2]", "values": [{"measurement": "% protection (obs)", "setting": "[1]; 5 ppm", "result": 20, "unit": "%"}, {"measurement": "% protection (obs)", "setting": "[1]; 150 ppm", "result": 27, "unit": "%"}, {"measurement": "% protection (obs)", "setting": "[1]; 250 ppm", "result": 53, "unit": "%"}, {"measurement": "Mortality (obs)", "setting": "[2]; 30 ppm", "result": 2, "unit": "%"}, {"measurement": "Mortality (obs)", "setting": "[2]; 100 ppm", "result": 10, "unit": "%"}, {"measurement": "Mortality (obs)", "setting": "[2]; 250 ppm", "result": 31, "unit": "%"}, {"measurement": "% protection (obs)", "setting": "[3]; 0.03 ppm", "result": 37, "unit": "%"}, {"measurement": "% protection (obs)", "setting": "[3]; 0.04 ppm", "result": 77, "unit": "%"}, {"measurement": "% protection (obs)", "setting": "[3]; 0.06 ppm", "result": 93, "unit": "%"}, {"measurement": "Mortality (obs)", "setting": "[4]; 8 ppm", "result": 4, "unit": "%"}, {"measurement": "Mortality (obs)", "setting": "[4]; 50 ppm", "result": 17, "unit": "%"}, {"measurement": "Mortality (obs)", "setting": "[4]; 250 ppm", "result": 76, "unit": "%"}]}, {"molecule": "Imidacloprid", "values": [{"measurement": "% protection (obs)", "setting": "[1]; 11 ppm", "result": 27, "unit": "%"}, {"measurement": "% protection (obs)", "setting": "[1]; 77 ppm", "result": 40, "unit": "%"}, {"measurement": "% protection (obs)", "setting": "[1]; 250 ppm", "result": 90, "unit": "%"}, {"measurement": "Mortality (obs)", "setting": "[2]; 0.08 ppm", "result": 2, "unit": "%"}, {"measurement": "Mortality (obs)", "setting": "[2]; 0.2 ppm", "result": 10, "unit": "%"}, {"measurement": "Mortality (obs)", "setting": "[2]; 0.8 ppm", "result": 71, "unit": "%"}, {"measurement": "% protection (obs)", "setting": "[3]; 0.8 ppm", "result": 73, "unit": "%"}, {"measurement": "% protection (obs)", "setting": "[3]; 17 ppm", "result": 80, "unit": "%"}, {"measurement": "% protection (obs)", "setting": "[3]; 50 ppm", "result": 90, "unit": "%"}, {"measurement": "Mortality (obs)", "setting": "[4]; 0.08 ppm", "result": 5, "unit": "%"}, {"measurement": "Mortality (obs)", "setting": "[4]; 0.15 ppm", "result": 44, "unit": "%"}, {"measurement": "Mortality (obs)", "setting": "[4]; 0.3 ppm", "result": 50, "unit": "%"}]}]}
